Measurements taken from patent US20230210116A1, “HONEYBEE REPELLENT” (EARTH CORPORATION, priority 2020, published 2023).

Experiments:
honeybees = experiment: Test for Confirmation of Effect from Combined Use with Pesticide 1, 2: number of dead honeybees; assay type: in vivo, western honeybees; conditions: for Number of dead honeybees: of 50 honeybees; for honeybees of the tested population that had died: test zone 1
Excerpt: (§1) Cinnamyl alcohol was used as the active ingredient of the honeybee repellent proposed by the present invention, while dinotefuran was used as the pesticide.
(§2) As the test sample representing the pesticide alone, a 0.01% by weight per volume ethanol solution of dinotefuran was used.
(§3) (2) Preparation of Feeding Stations and Water Stations 2 cotton pads (80 mm×170 mm) were layered on a lid of KP cup (150 mm in diameter) and the cotton pads were impregnated with 40% sugar water (80 g), after which two disposable wooden chopsticks (80 mm in length) were placed as “landing areas,” for use as “test insect (honeybee, stink bug) feeding station A.”
(§4) Also, equivalents of feeding station A above, except that water (80 g) was impregnated instead of 40% sugar water (80 g), were used as “water stations.”
(§5) “Test insect (honeybee, stink bug) feeding station A,” whose cotton pads were sprayed uniformly with 5 mL (containing 0.5 mg of dinotefuran) of the 0.01% by weight per volume ethanol solution of dinotefuran, was used as “test insect (honeybee, stink bug) feeding station B.”
(§6) “Test insect (honeybee, stink bug) feeding station A,” whose cotton pads were sprayed uniformly with 5 mL (containing 5 mg of cinnamyl alcohol and 0.5 mg of dinotefuran) of the mixed ethanol solution (0.1% by weight per volume of cinnamyl alcohol, 0.01% by weight per volume of dinotefuran), was used as “test insect (honeybee, stink bug) feeding station C.”
(§7) 3 spaces (80 cm×80 cm×80 cm, 25° C.) covered with nylon gauze were designated as “untreated zone” in which a water station and feeding station A were installed, “test zone 1” in which a water station and feeding stations A, B were installed, and “test zone 2” in which a water station and feeding stations A, C were installed.
(§8) In each of these “untreated zone,” “test zone 1,” and “test zone 2,” 50 honeybees (western honeybees) and 10 stink bugs (southern green stink bugs) were released and the number of dead honeybees and that of dead stink bugs were checked at the start of testing as well as 3 hours, 18 hours, and 20 hours after the start of testing.
(§9) Carvacrol was used as the active ingredient of the honeybee repellent proposed by the present invention, while clothianidin or fipronil was used as the pesticide.
(§10) As a test sample representing a combined use of the honeybee repellent proposed by the present invention and the pesticide, a mixed ethanol solution containing carvacrol and clothianidin (0.1% by weight per volume of carvacrol and 0.01% by weight per volume of clothianidin) or mixed ethanol solution containing carvacrol and fipronil (0.1% by weight per volume of carvacrol and 0.01% by weight per volume of fipronil) was used.
As a test sample representing the pesticide alone, a 0.01% by weight per volume ethanol solution of clothianidin or 0.01% by weight per volume ethanol solution of fipronil was used.
In the same manner as in <Test for Confirmation of Effect from Combined Use with Pesticide 1> above, the number of deaths among 50 honeybees (western honeybees) and that among 10 stink bugs (southern green stink bugs) were checked in each of the “untreated zone,” “test zone 1,” and “test zone 2.” Based on the results of <Test for Confirmation of Effect from Combined Use with Pesticide 1> above, the test was terminated when the number of dead honeybees in “test zone 1” reached around one half the tested population.

stink bugs = experiment: Test for Confirmation of Effect from Combined Use with Pesticide 1, 2: number of dead stink bugs; assay type: in vivo, southern green stink bugs; conditions: of 10 stink bugs
Excerpt: as §1, §2, §3, §4, §5, §6, §7, §8, §9
as §10, with “used. […]” for “used.”

[1] = 0 h (start of testing), 0.01% w/v pesticide, with or without 0.1% w/v repelling component, 5 mL on feeding station
[2] = 3 hours after the start of test

SMILES | Number of dead honeybees (honeybees; [1]) | Number of dead honeybees (honeybees; 1 h) | Number of dead honeybees (honeybees; 2 h) | Number of dead honeybees (honeybees; 3 h) | honeybees of the tested population that had died (honeybees; [2]) | Number of dead honeybees (honeybees; 18 h) | Number of dead honeybees (honeybees; 20 h) | honeybees of the tested population that had died (honeybees; 20 hours after the start of testing) | Number of dead stink bugs (stink bugs; 0 h (start of testing)) | Number of dead stink bugs (stink bugs; 3 h) | Number of dead stink bugs (stink bugs; 18 h) | Number of dead stink bugs (stink bugs; 20 h)
CN/C(=N\[N+](=O)[O-])NCc1cnc(Cl)s1 [clothianidin] | 0 | 11 | 18 | 39 | approx. 60% |  |  |  |  |  |  | 
CN/C(=N/CC1CCOC1)N[N+](=O)[O-] (stereo not drawn) [dinotefuran] | 0 |  |  | 1 |  | 3 | 21 | approx. 40% | 0 | 2 | 5 | 6
N#Cc1nn(-c2c(Cl)cc(C(F)(F)F)cc2Cl)c(N)c1[S+]([O-])C(F)(F)F (stereo not drawn) [fipronil] | 0 |  | 14 | 32 | approx. 60% |  |  |  |  |  |  | 
